Test results published in US11878966B2, “Substituted 4-benzyl and 4-benzoyl piperidine derivates” (89BIO LTD, priority 2015, dated 2024).

Legend:
[1] = molecular target: T1, recombinant human baculovirus-expressed GST-tagged FASN (Homo sapiens, UniProt P49327); assay: FASN enzyme activity assay: fluorescence-based detection of CoA with CPM; type: biochemical; conditions: 5 nM FASN, 150 μM NADPH, 10 μM acetyl-CoA, 25 μM malonyl-CoA, 90 minutes incubation
T1 construct: GST; host or cells: baculovirus expression system (insect cells implied)
Procedure, shortened: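 IC50 values were fitted (variable-slope sigmoid) to percent inhibition from CPM fluorescence (390/530 nm) reporting free CoA after a 30 min labelling step. The reaction ran 90 min after malonyl-CoA (25 μM) addition, with 10 μM acetyl-CoA, 150 μM NADPH, 5 nM recombinant GST-FASN, 50 mM HEPES pH 7.5 and 0.5% DMSO.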

T1 sequence (P49327 whole entry): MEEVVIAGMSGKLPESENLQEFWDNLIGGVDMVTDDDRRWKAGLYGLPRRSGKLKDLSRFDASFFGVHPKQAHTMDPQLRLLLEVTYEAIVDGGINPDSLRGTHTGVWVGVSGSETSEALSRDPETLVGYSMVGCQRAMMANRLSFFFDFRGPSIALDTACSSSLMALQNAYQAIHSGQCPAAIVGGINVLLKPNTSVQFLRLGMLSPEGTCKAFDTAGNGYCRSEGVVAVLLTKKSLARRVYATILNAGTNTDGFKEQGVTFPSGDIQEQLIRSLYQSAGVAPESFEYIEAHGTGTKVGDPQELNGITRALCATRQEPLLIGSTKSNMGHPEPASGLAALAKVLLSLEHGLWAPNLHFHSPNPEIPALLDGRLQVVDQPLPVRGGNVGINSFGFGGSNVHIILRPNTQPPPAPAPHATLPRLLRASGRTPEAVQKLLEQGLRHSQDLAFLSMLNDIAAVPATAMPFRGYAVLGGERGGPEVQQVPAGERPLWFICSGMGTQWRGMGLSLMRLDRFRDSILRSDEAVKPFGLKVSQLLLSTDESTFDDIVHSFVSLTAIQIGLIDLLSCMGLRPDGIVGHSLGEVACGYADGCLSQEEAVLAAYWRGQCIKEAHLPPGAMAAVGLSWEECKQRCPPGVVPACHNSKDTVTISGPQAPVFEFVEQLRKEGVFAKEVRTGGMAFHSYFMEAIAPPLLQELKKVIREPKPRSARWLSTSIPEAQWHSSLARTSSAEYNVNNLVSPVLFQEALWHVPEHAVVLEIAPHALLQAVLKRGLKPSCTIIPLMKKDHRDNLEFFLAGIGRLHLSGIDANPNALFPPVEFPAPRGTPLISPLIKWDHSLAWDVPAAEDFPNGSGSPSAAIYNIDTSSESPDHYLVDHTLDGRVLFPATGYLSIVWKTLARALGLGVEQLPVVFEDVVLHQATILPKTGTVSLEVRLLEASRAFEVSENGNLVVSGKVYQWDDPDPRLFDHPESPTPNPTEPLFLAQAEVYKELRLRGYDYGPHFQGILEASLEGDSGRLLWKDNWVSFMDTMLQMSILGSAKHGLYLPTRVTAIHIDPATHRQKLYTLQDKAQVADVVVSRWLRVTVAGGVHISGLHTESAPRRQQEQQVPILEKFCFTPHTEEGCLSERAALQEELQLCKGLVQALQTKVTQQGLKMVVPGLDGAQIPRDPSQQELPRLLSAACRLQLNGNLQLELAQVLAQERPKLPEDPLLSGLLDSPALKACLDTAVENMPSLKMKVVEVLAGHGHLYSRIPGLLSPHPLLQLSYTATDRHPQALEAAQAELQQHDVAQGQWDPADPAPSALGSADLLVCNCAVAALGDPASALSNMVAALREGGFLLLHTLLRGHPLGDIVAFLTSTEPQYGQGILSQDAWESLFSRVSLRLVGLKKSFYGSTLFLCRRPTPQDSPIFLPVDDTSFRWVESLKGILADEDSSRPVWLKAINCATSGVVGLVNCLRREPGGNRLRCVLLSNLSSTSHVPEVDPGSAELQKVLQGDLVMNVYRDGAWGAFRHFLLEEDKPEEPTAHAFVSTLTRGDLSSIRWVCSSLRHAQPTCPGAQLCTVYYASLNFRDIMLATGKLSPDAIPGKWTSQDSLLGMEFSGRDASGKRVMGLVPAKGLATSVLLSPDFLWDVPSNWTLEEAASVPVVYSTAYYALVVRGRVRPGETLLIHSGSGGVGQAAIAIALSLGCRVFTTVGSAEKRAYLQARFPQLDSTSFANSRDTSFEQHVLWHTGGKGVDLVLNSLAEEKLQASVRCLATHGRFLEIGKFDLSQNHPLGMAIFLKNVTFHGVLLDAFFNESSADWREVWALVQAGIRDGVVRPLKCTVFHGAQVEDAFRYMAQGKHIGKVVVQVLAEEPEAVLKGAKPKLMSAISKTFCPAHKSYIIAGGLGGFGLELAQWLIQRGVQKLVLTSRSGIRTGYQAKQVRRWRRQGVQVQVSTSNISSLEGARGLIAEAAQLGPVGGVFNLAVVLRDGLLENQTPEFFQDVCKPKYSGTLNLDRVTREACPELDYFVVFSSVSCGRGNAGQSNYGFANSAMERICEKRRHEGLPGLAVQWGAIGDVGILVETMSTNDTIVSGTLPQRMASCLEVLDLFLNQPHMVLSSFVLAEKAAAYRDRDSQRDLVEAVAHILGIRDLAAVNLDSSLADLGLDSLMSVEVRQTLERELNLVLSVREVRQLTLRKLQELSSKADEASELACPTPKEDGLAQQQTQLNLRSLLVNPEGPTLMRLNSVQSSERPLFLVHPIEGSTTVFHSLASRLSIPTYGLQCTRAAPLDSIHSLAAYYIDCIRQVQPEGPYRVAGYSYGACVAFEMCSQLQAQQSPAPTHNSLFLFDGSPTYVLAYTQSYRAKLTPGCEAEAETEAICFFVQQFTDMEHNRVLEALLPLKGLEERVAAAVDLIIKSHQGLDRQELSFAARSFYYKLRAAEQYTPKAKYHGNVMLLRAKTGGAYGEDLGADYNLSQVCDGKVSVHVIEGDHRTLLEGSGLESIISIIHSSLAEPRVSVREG

Structure (SMILES)	IC50 [1] [nM]	melting point [°C]
CCC(=O)N1CCC(O)(Cc2ccc(-c3ccc4[nH]ccc4c3)cc2)CC1 [Example 154, 1-(4-(4-(1H-indol-5-yl)benzyl)-4-hydroxypiperidin-1-yl)propan-1-one]	1000 to 10000	100
CCC(=O)N1CCC(O)(Cc2ccc(-c3ccc4occc4c3)cc2)CC1 [Example 152, 1-(4-(4-(benzofuran-5-yl)benzyl)-4-hydroxypiperidin-1-yl)propan-1-one]	1000 to 10000	76
CCC(=O)N1CCC(O)(Cc2ccc(-c3cncc4ccccc34)cc2)CC1 [Example 158, 1-(4-hydroxy-4-(4-(isoquinolin-4-yl)benzyl)piperidin-1-yl)propan-1-one]	1000 to 10000	78
CC(C)C(=O)N1CCC(O)(Cc2ccc(-c3ccc4[nH]ccc4c3)cc2)CC1 [Example 155, 1-(4-(4-(1H-indol-5-yl)benzyl)-4-hydroxypiperidin-1-yl)-2-methylpropan-1-one]	1000 to 10000	176
CCC(=O)N1CCC(C(C)c2ccc(-c3ccc4c(c3)NCCC4)cc2)CC1 (centres unmarked) [Example 38, 1-(4-(1-(4-(1,2,3,4-tetrahydroquinolin-7-yl)phenyl)ethyl)piperidin-1-yl)propan-1-one]	1000 to 10000	169 to 171
CC(C)C(=O)N1CCC(O)(Cc2ccc(-c3ccc4cnccc4c3)cc2)CC1 [Example 147, 1-[4-Hydroxy-4-(4-isoquinolin-6-yl-benzyl)-piperidin-1-yl]-2-methyl-propan-1-one]	1000 to 10000	175
CC(C)C(=O)N1CCC(O)(Cc2ccc(-c3ccc4cccnc4c3)cc2)CC1 [Example 151, 1-(4-hydroxy-4-(4-(quinolin-7-yl)benzyl)piperidin-1-yl)-2-methylpropan-1-one]	1000 to 10000	153
CCC(=O)N1CCC(O)(Cc2ccc(-c3cnc4ccccc4c3)cc2)CC1 [Example 148, 1-(4-hydroxy-4-(4-(quinolin-3-yl)benzyl)piperidin-1-yl)propan-1-one]	1000 to 10000	89
CCC(=O)N1CCC(O)(Cc2ccc(-c3ccc4cccnc4c3)cc2)CC1 [Example 150, 1-(4-hydroxy-4-(4-(quinolin-7-yl)benzyl)piperidin-1-yl)propan-1-one]	100 to 999	171
CCC(=O)N1CCC(O)(Cc2ccc(-c3cc4ccccc4o3)cc2)CC1 [Example 156, 1-(4-(4-(benzofuran-2-yl)benzyl)-4-hydroxypiperidin-1-yl)propan-1-one]	1000 to 10000	174
CC(C)C(=O)N1CCC(O)(Cc2ccc(-c3cnc4ccccc4c3)cc2)CC1 [Example 149, 1-(4-hydroxy-4-(4-(quinolin-3-yl)benzyl)piperidin-1-yl)-2-methylpropan-1-one]	1000 to 10000	168
CCC(=O)N1CCC(C2(c3ccc(-c4cnc5ccccc5c4)cc3)CC2)CC1 [Example 40, 1-{4-[1-(4-quinolin-3-yl-phenyl)-cyclopropyl]-piperidin-1-yl}-propan-1-one]	1 to 99	153 to 155
CC(C)C(=O)N1CCC(O)(Cc2ccc(-c3cncc4ccccc34)cc2)CC1 [Example 159, 1-(4-hydroxy-4-(4-(isoquinolin-4-yl)benzyl)piperidin-1-yl)-2-methylpropan-1-one]	1000 to 10000	196
C=C(c1ccc(-c2cnc3ccccc3c2)cc1)C1CCN(C(=O)C2CC2)CC1 [Example 41, Cyclopropyl-{4-[1-(4-quinolin-3-yl-phenyl)-vinyl]-piperidin-1-yl}-methanone]	1 to 99	100 to 102
COc1c(-c2ccc(CC3(C#N)CCN(C(=O)[C@H]4CCCO4)CC3)cc2)ccc2cccnc12 [Example 91, 4-[4-(8-Methoxyquinolin-7-yl)-benzyl]-1-((R)-tetrahydrofuran-2-carbonyl)-piperidine-4-carbonitrile]	1 to 99	102 to 105
CC(C)C(=O)N1CCC(O)(Cc2ccc(-c3cc4ccccc4o3)cc2)CC1 [Example 157, 1-(4-(4-(benzofuran-2-yl)benzyl)-4-hydroxypiperidin-1-yl)-2-methylpropan-1-one]	1000 to 10000	203
